The values that follow come from US10670605B2, “Cysteine reactive probes and uses thereof” (The Scripps Research Institute, priority 2015, dated 2020).

Common to all, as to assay: Competitive isoTOP-ABPP in situ (fragment-treated cells)
Common to all, as to format: cell-based

Assay [1] deals with cysteines in MDA-MB-231 and Ramos cells (Homo sapiens, UniProt Q15365).
The target in assay [2] is T1, cysteines in MDA-MB-231 and Ramos cells (Homo sapiens, UniProt P42166).
T1 sequence (P42166 1-694): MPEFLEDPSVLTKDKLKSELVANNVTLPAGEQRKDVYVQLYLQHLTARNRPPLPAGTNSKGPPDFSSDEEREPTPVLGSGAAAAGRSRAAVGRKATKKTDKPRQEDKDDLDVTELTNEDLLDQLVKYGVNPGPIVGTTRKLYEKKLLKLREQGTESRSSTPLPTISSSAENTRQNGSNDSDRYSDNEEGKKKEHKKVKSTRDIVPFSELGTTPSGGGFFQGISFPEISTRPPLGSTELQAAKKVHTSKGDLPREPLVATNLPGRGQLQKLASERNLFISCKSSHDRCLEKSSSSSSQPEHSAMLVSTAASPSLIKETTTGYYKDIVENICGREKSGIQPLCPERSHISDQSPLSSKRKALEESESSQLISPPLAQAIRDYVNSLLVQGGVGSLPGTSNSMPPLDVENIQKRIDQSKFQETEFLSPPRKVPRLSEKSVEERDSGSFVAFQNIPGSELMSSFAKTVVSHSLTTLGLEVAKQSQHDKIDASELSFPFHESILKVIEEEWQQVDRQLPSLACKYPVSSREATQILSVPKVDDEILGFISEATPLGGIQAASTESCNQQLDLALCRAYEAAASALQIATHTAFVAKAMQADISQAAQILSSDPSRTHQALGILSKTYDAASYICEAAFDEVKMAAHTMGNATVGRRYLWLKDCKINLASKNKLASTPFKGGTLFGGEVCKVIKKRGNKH

The target of assay [3] is T2, cysteines in MDA-MB-231 and Ramos cells (Homo sapiens, UniProt Q96S55).
T2 sequence (Q96S55 1-665): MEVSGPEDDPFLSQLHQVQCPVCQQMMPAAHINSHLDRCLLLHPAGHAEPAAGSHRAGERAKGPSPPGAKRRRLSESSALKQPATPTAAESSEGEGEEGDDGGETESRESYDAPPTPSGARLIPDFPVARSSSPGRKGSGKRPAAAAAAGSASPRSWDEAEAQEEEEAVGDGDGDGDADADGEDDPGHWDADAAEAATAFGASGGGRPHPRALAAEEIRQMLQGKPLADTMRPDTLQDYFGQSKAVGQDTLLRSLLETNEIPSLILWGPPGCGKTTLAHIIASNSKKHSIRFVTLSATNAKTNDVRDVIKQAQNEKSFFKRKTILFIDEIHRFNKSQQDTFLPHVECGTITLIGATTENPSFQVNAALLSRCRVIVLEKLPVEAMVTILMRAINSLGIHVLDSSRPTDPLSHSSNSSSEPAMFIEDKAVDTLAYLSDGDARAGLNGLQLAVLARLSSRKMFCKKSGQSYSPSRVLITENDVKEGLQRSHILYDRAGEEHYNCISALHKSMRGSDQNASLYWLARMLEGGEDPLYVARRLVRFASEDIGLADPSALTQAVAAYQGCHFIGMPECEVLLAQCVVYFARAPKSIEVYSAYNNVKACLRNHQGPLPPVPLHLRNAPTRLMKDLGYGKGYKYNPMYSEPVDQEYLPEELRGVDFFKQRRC

Assay [4] deals with T3, cysteines in MDA-MB-231 and Ramos cells (Homo sapiens, UniProt Q9NQW6).
T3 sequence (Q9NQW6 1-1124): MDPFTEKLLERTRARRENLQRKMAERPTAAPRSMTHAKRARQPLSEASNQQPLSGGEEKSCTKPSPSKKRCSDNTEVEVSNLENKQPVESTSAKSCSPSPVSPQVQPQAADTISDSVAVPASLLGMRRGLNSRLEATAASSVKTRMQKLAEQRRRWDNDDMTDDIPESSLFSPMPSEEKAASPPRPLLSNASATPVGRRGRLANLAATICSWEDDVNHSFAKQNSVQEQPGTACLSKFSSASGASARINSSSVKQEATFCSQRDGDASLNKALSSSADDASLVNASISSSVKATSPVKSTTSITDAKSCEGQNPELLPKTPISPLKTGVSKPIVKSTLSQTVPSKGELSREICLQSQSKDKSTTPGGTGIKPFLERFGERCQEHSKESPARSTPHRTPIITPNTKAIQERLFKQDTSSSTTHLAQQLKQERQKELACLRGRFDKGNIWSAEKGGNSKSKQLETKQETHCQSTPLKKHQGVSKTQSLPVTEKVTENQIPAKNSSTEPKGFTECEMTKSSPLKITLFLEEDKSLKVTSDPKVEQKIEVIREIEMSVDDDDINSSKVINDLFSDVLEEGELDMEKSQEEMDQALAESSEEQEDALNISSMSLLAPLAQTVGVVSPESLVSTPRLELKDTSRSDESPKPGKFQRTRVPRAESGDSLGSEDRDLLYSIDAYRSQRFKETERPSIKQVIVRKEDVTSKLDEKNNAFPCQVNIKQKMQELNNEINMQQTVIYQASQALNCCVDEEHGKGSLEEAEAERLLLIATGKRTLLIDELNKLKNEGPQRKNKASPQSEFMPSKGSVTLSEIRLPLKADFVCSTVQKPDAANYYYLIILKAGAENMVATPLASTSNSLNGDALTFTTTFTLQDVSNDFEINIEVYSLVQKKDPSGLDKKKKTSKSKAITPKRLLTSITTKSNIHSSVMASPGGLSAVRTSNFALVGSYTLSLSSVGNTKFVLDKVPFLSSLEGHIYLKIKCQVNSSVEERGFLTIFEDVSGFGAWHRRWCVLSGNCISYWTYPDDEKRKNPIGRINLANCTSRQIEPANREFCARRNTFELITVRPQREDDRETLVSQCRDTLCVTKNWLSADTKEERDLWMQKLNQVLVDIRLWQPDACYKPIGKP

Chain of cysteines in MDA-MB-231 and Ramos cells (Homo sapiens, UniProt Q15365) (Q15365 whole entry): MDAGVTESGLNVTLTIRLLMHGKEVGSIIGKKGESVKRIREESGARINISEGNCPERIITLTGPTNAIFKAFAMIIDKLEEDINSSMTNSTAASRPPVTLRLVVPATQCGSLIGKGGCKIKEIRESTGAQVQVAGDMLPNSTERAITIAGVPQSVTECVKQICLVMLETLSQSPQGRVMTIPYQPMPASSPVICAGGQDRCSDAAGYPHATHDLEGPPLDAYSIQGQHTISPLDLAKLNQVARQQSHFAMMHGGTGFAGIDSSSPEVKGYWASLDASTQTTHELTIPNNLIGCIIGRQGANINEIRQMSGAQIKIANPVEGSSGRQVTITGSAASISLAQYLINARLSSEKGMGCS

As to `COc1ccc2c(c1)CCCN2C(=O)CCl` [compound 2], the “isoTOP-ABPP reactivity Q15365_C194 PCBP1” value in assay [1] (200 μM, insitu, 231) worked out at 5.1. Further, in assay [2] (200 μM, insitu, 231), the “isoTOP-ABPP reactivity P42166_C341 TMPO” value was 10.4, the “isoTOP-ABPP reactivity P42166_C561 TMPO” value is 8.3 and the “isoTOP-ABPP reactivity P42166_C629 TMPO” value is given as 4.4. The “isoTOP-ABPP reactivity Q96S55_C272 WRNIP1” value in assay [3] (200 μM, insitu, 231) came to 2.2.

Turning to `COc1ccc(C2CC(c3cccs3)=NN2C(=O)CCl)cc1` (stereo not shown) [compound 4], in assay [4] (100 μM in situ 231), the “isoTOP-ABPP reactivity Q9NQW6_C712 ANLN” value is reported as 4.1. Besides, the “isoTOP-ABPP reactivity Q15365_C194 PCBP1” value in assay [1] (100 μM in situ 231) was found to be 1.4. Also, in assay [2] (100 μM in situ 231), the “isoTOP-ABPP reactivity P42166_C561 TMPO” value stood at 20.0. Besides, the “isoTOP-ABPP reactivity Q96S55_C272 WRNIP1” value in assay [3] (100 μM in situ 231) amounted to 3.7.

As for `COc1cc2c(cc1OC)CN(C(=O)CCl)CC2` [compound 8], the “isoTOP-ABPP reactivity Q9NQW6_C712 ANLN” value in assay [4] (200 μM, insitu, 231) came out at 14.1. Further, in assay [1] (200 μM, insitu, 231), the “isoTOP-ABPP reactivity Q15365_C194 PCBP1” value is 1.4. For the same molecule, in assay [2] (200 μM, insitu, 231), the “isoTOP-ABPP reactivity P42166_C341 TMPO” value is 4.4, the “isoTOP-ABPP reactivity P42166_C561 TMPO” value is recorded as 4.6, the “isoTOP-ABPP reactivity P42166_C629 TMPO” value came out at 1.7 and the “isoTOP-ABPP reactivity P42166_C684 TMPO” value is listed as 4.6. Besides, in assay [3] (200 μM, insitu, 231), the “isoTOP-ABPP reactivity Q96S55_C272 WRNIP1” value is listed as 1.2.

Regarding `O=C(CCl)N1CCC(Cc2ccccc2)CC1` [compound 9], in assay [4] (200 μM, insitu, 231), the “isoTOP-ABPP reactivity Q9NQW6_C712 ANLN” value worked out at 3.1. In addition, in assay [1] (200 μM, insitu, 231), the “isoTOP-ABPP reactivity Q15365_C194 PCBP1” value is 10.1. The “isoTOP-ABPP reactivity P42166_C561 TMPO” value in assay [2] (200 μM, insitu, 231) was 3.7. Besides, the “isoTOP-ABPP reactivity Q96S55_C272 WRNIP1” value in assay [3] (200 μM, insitu, 231) was determined as 4.5.

Consider `O=C(CCl)N1CCN(S(=O)(=O)c2ccccc2F)CC1` [compound 10], for which the “isoTOP-ABPP ratio Q9NQW6_C712” value in assay [4] (200 μM, insitu, 231) worked out at 11.2. Besides, in assay [1] (200 μM, insitu, 231), the “isoTOP-ABPP ratio Q15365_C194” value is reported as 1.6. Besides, the “isoTOP-ABPP ratio Q15365_C194” value in assay [1] (200 μM, insitu, ramos) was 2.0. Moreover, in assay [2] (200 μM, insitu, 231), the “isoTOP-ABPP ratio P42166_C561” value came out at 17.8; the “isoTOP-ABPP ratio, cysteine P42166_C518” value came to 4.2; the “isoTOP-ABPP ratio, cysteine P42166_C629” value came to 2.5; the “isoTOP-ABPP ratio, cysteine P42166_C684” value was determined as 5.2. The “isoTOP-ABPP ratio Q96S55_C272” value in assay [3] (200 μM, insitu, 231) is on record as 1.2.

Regarding `Cn1cc(S(=O)(=O)N2CCOCC2)cc1C(=O)NC(=O)CCl` [compound 11], in assay [4] (100 μM in situ 231), the “isoTOP-ABPP ratio Q9NQW6_C712” value was 0.9. Further, in assay [1] (100 μM in situ 231), the “isoTOP-ABPP ratio Q15365_C194” value amounted to 0.4. Moreover, in assay [2] (100 μM in situ 231), the “isoTOP-ABPP ratio P42166_C341” value came out at 0.8; the “isoTOP-ABPP ratio P42166_C561” value is listed as 0.6; the “isoTOP-ABPP ratio, cysteine P42166_C518” value is given as 0.8; the “isoTOP-ABPP ratio, cysteine P42166_C629” value was found to be 0.6. In addition, the “isoTOP-ABPP ratio, cysteine P42166_C684” value in assay [2] (100 μM in situ 231) is on record as 0.7.

Consider `O=C(CCl)NC(=O)NC12CC3CC(CC(C3)C1)C2` [compound 12], for which the “isoTOP-ABPP ratio Q9NQW6_C712” value in assay [4] (200 μM, insitu, 231) was determined as 16.7. Besides, the “isoTOP-ABPP ratio Q15365_C194” value in assay [1] (200 μM, insitu, 231) is 1.3. The “isoTOP-ABPP ratio P42166_C561” value in assay [2] (200 μM, insitu, 231) came to 16.1. For the same molecule, the “isoTOP-ABPP ratio Q96S55_C272” value in assay [3] (200 μM, insitu, 231) is recorded as 2.4.

Consider `O=C(CCl)NCCc1c[nH]c2ccccc12` [compound 13], for which, in assay [4] (200 μM, insitu, 231), the “isoTOP-ABPP ratio Q9NQW6_C712” value was 1.3. Also, in assay [1] (200 μM, insitu, 231), the “isoTOP-ABPP ratio Q15365_C194” value worked out at 0.9. Further, the “isoTOP-ABPP ratio Q15365_C194” value in assay [1] (200 μM, insitu, ramos) is listed as 1.4. Also, in assay [2] (200 μM, insitu, 231), the “isoTOP-ABPP ratio P42166_C341” value came to 1.3; the “isoTOP-ABPP ratio P42166_C561” value was determined as 1.2; the “isoTOP-ABPP ratio, cysteine P42166_C629” value is 1.0; the “isoTOP-ABPP ratio, cysteine P42166_C684” value was 1.2. In assay [2] (200 μM, insitu, ramos), the “isoTOP-ABPP ratio P42166_C341” value is reported as 1.4 and the “isoTOP-ABPP ratio P42166_C561” value is listed as 1.0. Further, the “isoTOP-ABPP ratio Q96S55_C272” value in assay [3] (200 μM, insitu, 231) turned out to be 0.7.
